Data reported in patent US4826844A, “Substituted 1-(aralkyl-piperazinoalkyl) cycloalkanols” (American Home Products Corporation, priority 1987, dated 1989).

Legend:
5-HT1A receptor = biological target: T1, 5-HT1A receptor (Rattus norvegicus, UniProt P19327); assay: inhibition of [3H] 8-hydroxy-2-(di-n-propylamino)tetralin binding at 5-HT1A receptor sites; settings: rat hippocampal tissue
T1 construct: from tissue; host or cells: rat hippocampus
T1 sequence (P19327 1-422): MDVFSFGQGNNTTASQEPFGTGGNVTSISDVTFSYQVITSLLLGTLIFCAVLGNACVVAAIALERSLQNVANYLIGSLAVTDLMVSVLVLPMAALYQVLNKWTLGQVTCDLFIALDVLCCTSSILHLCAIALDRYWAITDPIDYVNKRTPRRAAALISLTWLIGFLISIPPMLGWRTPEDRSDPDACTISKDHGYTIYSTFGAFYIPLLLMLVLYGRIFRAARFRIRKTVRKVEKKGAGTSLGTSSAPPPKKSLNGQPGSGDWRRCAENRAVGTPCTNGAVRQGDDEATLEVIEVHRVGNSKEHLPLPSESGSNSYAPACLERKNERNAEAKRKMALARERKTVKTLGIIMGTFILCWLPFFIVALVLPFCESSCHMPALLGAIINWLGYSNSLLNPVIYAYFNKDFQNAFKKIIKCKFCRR
From the text: 8-hydroxy-2-(di-n-propylamino)tetralin binding at 5-HT binding sites in rat hippocampal tissue, following the procedure of Hall et al., J. Neurochem., 44 1685 (1985).

dopamine D2 receptors = biological target: T2, dopamine D2 receptors (Rattus norvegicus, UniProt P61169); assay: inhibition of 3H-haloperidol binding at dopamine D2 receptors in homogenized limbic brain tissue; settings: for inhibition at 1 µM: read-out: Receptor Binding D2 % Inhibition at 1 μM
T2 construct: found in homogenized limbic brain tissue; from tissue; host or cells: homogenized limbic brain tissue
From the text: The actual percentage reduction of ^3 H-haloperidol binding is reported infra and the larger the number, the greater the potential for dopamine D2 receptor binding and antipsychotic activity.

[1] = tested on: synaptosomial uptake of norepinephrine; assay: inhibition of synaptosomial uptake of norepinephrine (3H-NE); assay type: biochemical; settings: for IC50 / Neuronal Uptake NE % Inhibition at 10 μM: synaptosomes; for IC50: read-out: Neuronal Uptake NE IC50
From the text: (§1) The pharmacological test data obtained for a representative number of compounds of this invention in accordance with the standard experimental test procedures disclosed above appear in the following table: […]

[2] = tested on: synaptosomial uptake of serotonin; assay: inhibition of synaptosomial uptake of serotonin (14C-5-HT); assay type: biochemical; settings: synaptosomes
From the text: as §1

T2 sequence (P61169 whole entry): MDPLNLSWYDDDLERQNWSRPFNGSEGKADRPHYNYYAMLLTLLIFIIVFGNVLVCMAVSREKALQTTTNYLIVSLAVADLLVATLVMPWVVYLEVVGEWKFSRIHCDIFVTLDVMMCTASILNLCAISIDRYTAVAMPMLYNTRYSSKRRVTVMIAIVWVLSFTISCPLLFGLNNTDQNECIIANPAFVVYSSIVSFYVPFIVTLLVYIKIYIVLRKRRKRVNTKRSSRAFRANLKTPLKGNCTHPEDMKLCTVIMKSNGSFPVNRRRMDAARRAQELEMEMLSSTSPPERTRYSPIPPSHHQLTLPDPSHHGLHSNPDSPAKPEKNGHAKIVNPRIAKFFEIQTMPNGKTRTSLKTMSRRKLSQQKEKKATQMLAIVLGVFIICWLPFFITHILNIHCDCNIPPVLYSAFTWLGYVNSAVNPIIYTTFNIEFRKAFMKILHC

Row | inhibition at 1 µM (5-HT1A receptor) | inhibition at 1 µM (dopamine D2 receptors; 3H-haloperidol) | SMILES | also measured
1 | 78% | 59% | COc1cccc(C(CCN2CCN(c3ncccn3)CC2)C2(O)CCCCC2)c1 (stereo not drawn) [Example 2, 1-[1-(3-Methoxyphenyl)-3-[4-(2-pyrimidinyl)-1-piperazinyl]propyl]cyclohexanol] | 
2 |  | 41% | COc1cccc(C(CCN2CCN(c3cncc(Cl)n3)CC2)C2(O)CCCCC2)c1 (stereo not drawn) [Example 3, 1-[3-[4-(6-Chloro-2-pyrazinyl)-1-piperazinyl]-1-(3-methoxyphenyl)propyl]cyclohexanol] | Ki (5-HT1A receptor): 122 nM
3 | 66% | 90% | COc1cccc(C(CCN2CCN(Cc3cccc(Cl)c3)CC2)C2(O)CCCCC2)c1 (stereo not drawn) [Example 4, 1-[3-[4-[(3-Chlorophenyl)methyl]-1-piperazinyl]-1-(3-methoxyphenyl)propyl]cyclohexanol] | dopamine D2 receptor affinity / binding potential (in words) (dopamine D2 receptors): typical D2 binding potential
4 | 97% | 51% | COc1cccc(C(CCN2CCN(Cc3ccc(Cl)cc3)CC2)C2(O)CCCCC2)c1 (stereo not drawn) [Example 5, 1-[3-[4-[(4-Chlorophenyl)methyl]-1-piperazinyl]-1-(3-methoxyphenyl)propyl]cyclohexanol] | 
5 | 93% | 91% | COc1cccc(C(CCN2CCN(Cc3ccccc3OC)CC2)C2(O)CCCCC2)c1 (stereo not drawn) [Example 6, 1-[1-(3-Methoxyphenyl)-3-[4-[(2-methoxyphenyl)methyl]-1-piperazinyl]propyl]cyclohexanol] | 
6 | 93% | 89% | COc1cccc(C(CCN2CCN(Cc3cccc(F)c3)CC2)C2(O)CCCCC2)c1 (stereo not drawn) [Example 7, 1-[3-[4-[(3-Fluorophenyl)methyl]-1-piperazinyl]-1-(3-methoxyphenyl)propyl]cyclohexanol] | 
7 | 57% | 15% | COc1ccc(C(CCN2CCN(c3cncc(Cl)n3)CC2)C2(O)CCCCC2)cc1 (stereo not drawn) [Example 9, 1-[3-[4-(6-Chloro-2-pyrazinyl)-1-piperazinyl]-1(4-methoxyphenyl)propyl]cyclohexanol] | 
8 | 99% | 73% | COc1ccc(C(CCN2CCN(Cc3cccc(OC)c3)CC2)C2(O)CCCCC2)cc1 (stereo not drawn) [Example 10] | 
9 | 100% | 95% | COc1ccc(C(CCN2CCN(Cc3cccc(Cl)c3)CC2)C2(O)CCCCC2)cc1 (stereo not drawn) [Example 12, 1-[3-[4-[(3-Chlorophenyl)methyl]-1-piperazinyl]-1-(4-methoxyphenyl)propyl]cyclohexanol] | 
10 | 91% | 90% | COc1cccc(C(CN2CCN(Cc3ccccc3)CC2)C2(O)CCCCC2)c1 (stereo not drawn) [Example 15, 1-[1-(3-Methoxyphenyl)-2-[4-(phenylmethyl)-1-piperazinyl]ethyl]cyclohexanol] | 
11 |  | 11% | COc1ccc(C(CCN2CCN(c3ncccn3)CC2)C2(O)CCCCC2)cc1 (stereo not drawn) [Example 24] | 

The next lines start with the compound.

Row | SMILES | inhibition at 1 µM (5-HT1A receptor) | inhibition at 1 µM (dopamine D2 receptors; 3H-haloperidol) | also measured
12 | COc1cccc(C(CCN2CCN(Cc3ccccc3)CC2)C2(O)CCCCC2)c1 (stereo not drawn) [Example 1, 1-[1-(3-Methoxyphenyl)-3-[4-(phenylmethyl)-1-piperazinyl]propyl]cyclohexanol] |  |  | Ki (5-HT1A receptor): 10 nM; affinity at 5-HT1A receptor binding sites (in words) (5-HT1A receptor): strong affinity at 5-HT1A receptor binding sites; Ki (dopamine D2 receptors; 3H-haloperidol, read-out: Receptor Binding D2 Ki): 209 nM; IC50 [1]: 2030 nM; IC50 ([2]; read-out: Neuronal Uptake 5HT IC50): 390 nM
13 | COc1ccc(C(CCN2CCN(Cc3ccccc3)CC2)C2(O)CCCCC2)cc1 (stereo not drawn) [Example 8, 1-[1-(4-Methoxyphenyl)-3-[4-(phenylmethyl)-1-piperazinyl]propyl]cyclohexanol] | 99% | 55% | IC50 [1]: 610 nM; Neuronal Uptake 5HT % Inhibition at 10 μM [2]: 67%
14 | COc1ccc(C(CCN2CCN(Cc3cccc(C(F)(F)F)c3)CC2)C2(O)CCCCC2)cc1 (stereo not drawn) [Example 11, 1-[1-(4-Methoxyphenyl)-3-[4-[[3-(trifluoromethyl)phenyl]methyl]-1-piperazinyl]propyl]cyclohexanol] | 100% | 100% | dopamine D2 receptor affinity / binding potential (in words) (dopamine D2 receptors): typical D2 binding potential
15 | COc1ccc(C(CCN2CCN(Cc3ccccc3OC)CC2)C2(O)CCCCC2)cc1 (stereo not drawn) [Example 13] | 93% | 77% | 
16 | COc1ccc(C(CCN2CCN(Cc3ccc(C(F)(F)F)cc3)CC2)C2(O)CCCCC2)cc1 (stereo not drawn) [Example 14, 1-[1-(4-Methoxyphenyl)-3-[4-[[4-(trifuloromethyl)phenyl]methyl]-1-piperazinyl]propyl]cyclohexanol] | 63% | 25% | 
17 | COc1cccc(C(CN2CCN(c3cccc(Cl)c3)CC2)C2(O)CCCCC2)c1 (stereo not drawn) [Example 18] | 97% | 39% | Neuronal Uptake NE % Inhibition at 10 μM [1]: 38%; Neuronal Uptake 5HT % Inhibition at 10 μM [2]: 62%
18 | OC1(C(CN2CCN(c3cccc(Cl)c3)CC2)c2cccc(Cl)c2)CCCCC1 (stereo not drawn) [Example 19, 1-[1-(3-Chlorophenyl)-2-[4-(3-chlorophenyl)-1-piperazinyl]ethyl]cyclohexanol] | 94% | 32% | 
19 | CN1CCN(CC(c2cccc(Cl)c2)C2(O)CCCCC2)CC1 (stereo not drawn) [Example 26, 1-[1-(3-Chlorophenyl)-2-(4-methyl-1-piperazinyl)ethyl]cyclohexanol] | 0% | 26% | antidepressant activity by inhibition of synaptosomial uptake of norepinephrine and/or serotonin (in words) [1]: selective antidepressant activity; IC50 [1]: 180 nM; Neuronal Uptake 5HT % Inhibition at 10 μM [2]: 33%
20 | CN1CCN(CC(c2cccc(C(F)(F)F)c2)C2(O)CCCCC2)CC1 (stereo not drawn) [Example 27, 1-[2-(4-Methyl-1-piperazinyl)-1-[3-(trifluoromethyl)phenyl]ethyl]cyclohexanol] | 5% | 0% | Neuronal Uptake NE % Inhibition at 10 μM [1]: 86%; antidepressant activity by inhibition of synaptosomial uptake of norepinephrine and/or serotonin (in words) [1]: selective antidepressant activity; Neuronal Uptake 5HT % Inhibition at 10 μM [2]: 0%
